Laboratory results: PubChem BioAssay (NCI)
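96-well plates; 48 h exposure; 5 concentrations. Endpoints by linear interpolation between flanking doses. Not reached: highest tested concentration assigned. The concentration for 50% growth inhibition is given as GI50. TGI is the concentration that stops growth completely.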

Tests used:
Assay in all cases: NCI anticancer screen, dose series, 48 h
UACC-62 melanoma = system: UACC-62 melanoma
BT-549 breast = system: BT-549 breast
HOP-92 NSCLC = system: HOP-92 NSCLC
MDA-MB-231 breast = system: MDA-MB-231 breast
HCT-116 colon = system: HCT-116 colon
SNB-75 CNS = system: SNB-75 CNS
HT29 colon = system: HT29 colon
SK-MEL-28 melanoma = system: SK-MEL-28 melanoma
UACC-257 melanoma = system: UACC-257 melanoma
NCI-H226 lung = system: NCI-H226 lung
MDA-MB-435 = system: MDA-MB-435
SF-295 CNS = system: SF-295 CNS
ACHN renal = system: ACHN renal
OVCAR-4 ovarian = system: OVCAR-4 ovarian
HS 578T breast = system: HS 578T breast
SW-620 colon = system: SW-620 colon
CCRF-CEM leukemia = system: CCRF-CEM leukemia
SK-MEL-5 melanoma = system: SK-MEL-5 melanoma
HOP-62 NSCLC = system: HOP-62 NSCLC
SNB-19 CNS = system: SNB-19 CNS
HCC-2998 colon = system: HCC-2998 colon
U251 CNS = system: U251 CNS
SR leukemia = system: SR leukemia
RXF 393 renal = system: RXF 393 renal
NCI-H522 lung = system: NCI-H522 lung
TK-10 renal = system: TK-10 renal
SF-539 CNS = system: SF-539 CNS
SK-MEL-2 melanoma = system: SK-MEL-2 melanoma
PC-3 prostate = system: PC-3 prostate
NCI/ADR-RES ovarian = system: NCI/ADR-RES ovarian
M14 melanoma = system: M14 melanoma
MALME-3M melanoma = system: MALME-3M melanoma
UO-31 renal = system: UO-31 renal
A498 renal = system: A498 renal
RPMI-8226 leukemia = system: RPMI-8226 leukemia
MCF7 breast = system: MCF7 breast
DU-145 prostate = system: DU-145 prostate
COLO 205 colon = system: COLO 205 colon
K-562 leukemia = system: K-562 leukemia
SF-268 CNS = system: SF-268 CNS
IGROV1 ovarian = system: IGROV1 ovarian
HCT-15 colon = system: HCT-15 colon
786-0 renal = system: 786-0 renal
CAKI-1 renal = system: CAKI-1 renal
KM12 colon = system: KM12 colon
A549 NSCLC = system: A549 NSCLC
EKVX NSCLC = system: EKVX NSCLC
OVCAR-8 ovarian = system: OVCAR-8 ovarian
NCI-H460 lung = system: NCI-H460 lung
SN12C renal = system: SN12C renal
OVCAR-5 ovarian = system: OVCAR-5 ovarian
LOX IMVI melanoma = system: LOX IMVI melanoma
NCI-H23 lung = system: NCI-H23 lung
MOLT-4 leukemia = system: MOLT-4 leukemia
SK-OV-3 ovarian = system: SK-OV-3 ovarian
T-47D breast = system: T-47D breast
HL-60(TB) leukemia = system: HL-60(TB) leukemia
OVCAR-3 ovarian = system: OVCAR-3 ovarian

`CC1=NN(c2cccc(Cl)c2)C(=O)/C1=C\C=C\c1ccccc1` showed a GI50 (UACC-62 melanoma) of 1.76 µM, a TGI (UACC-62 melanoma) of 3.87 µM and a GI50 (BT-549 breast) of 1.64 µM. It also gave a TGI (BT-549 breast) of 3.17 µM, a GI50 (HOP-92 NSCLC) of 4.63 µM and a TGI (HOP-92 NSCLC) of 43 µM. It also gave a GI50 (MDA-MB-231 breast) of 2.27 µM, a TGI (MDA-MB-231 breast) of 7.47 µM and a GI50 (HCT-116 colon) of 1.56 µM. The TGI (HCT-116 colon) was 3.09 µM, the GI50 (SNB-75 CNS) was 7.12 µM and the TGI (SNB-75 CNS) was over 100 µM. It also gave a GI50 (HT29 colon) of 2.98 µM, a TGI (HT29 colon) of 7.4 µM and a GI50 (SK-MEL-28 melanoma) of 2.09 µM. It also gave a TGI (SK-MEL-28 melanoma) of 4.3 µM, a GI50 (UACC-257 melanoma) of 2.13 µM and a TGI (UACC-257 melanoma) of 7.26 µM. For the same compound, the GI50 (NCI-H226 lung) was 2.68 µM, the TGI (NCI-H226 lung) was 7.62 µM and the GI50 (MDA-MB-435) was 2.5 µM. The TGI (MDA-MB-435) was 7.37 µM, the GI50 (SF-295 CNS) was 3.17 µM and the TGI (SF-295 CNS) was 67.8 µM. For the same compound, the GI50 (ACHN renal) was 1.79 µM, the TGI (ACHN renal) was 3.34 µM and the GI50 (OVCAR-4 ovarian) was 3.37 µM. It also gave a TGI (OVCAR-4 ovarian) of over 100 µM, a GI50 (HS 578T breast) of 1.65 µM and a TGI (HS 578T breast) of 9.61 µM. It also gave a GI50 (SW-620 colon) of 1.74 µM, a TGI (SW-620 colon) of 3.44 µM and a GI50 (CCRF-CEM leukemia) of 3.14 µM. It also gave a TGI (CCRF-CEM leukemia) of over 100 µM, a GI50 (SK-MEL-5 melanoma) of 2.27 µM and a TGI (SK-MEL-5 melanoma) of 5.76 µM. For the same compound, the GI50 (HOP-62 NSCLC) was 3.18 µM, the TGI (HOP-62 NSCLC) was 11.1 µM and the GI50 (SNB-19 CNS) was 5.67 µM. The TGI (SNB-19 CNS) was over 100 µM, the GI50 (HCC-2998 colon) was 1.91 µM and the TGI (HCC-2998 colon) was 3.45 µM. It also gave a GI50 (U251 CNS) of 1.78 µM, a TGI (U251 CNS) of 4.42 µM and a GI50 (SR leukemia) of 2.36 µM. It also gave a TGI (SR leukemia) of over 100 µM, a GI50 (RXF 393 renal) of 2.12 µM and a TGI (RXF 393 renal) of 3.92 µM. It also gave a GI50 (NCI-H522 lung) of 2.63 µM, a TGI (NCI-H522 lung) of 6.84 µM and a GI50 (TK-10 renal) of 3.17 µM. It also gave a TGI (TK-10 renal) of 9.05 µM, a GI50 (SF-539 CNS) of 2.5 µM and a TGI (SF-539 CNS) of 6.12 µM. The GI50 (SK-MEL-2 melanoma) was 3.85 µM, the TGI (SK-MEL-2 melanoma) was 16.7 µM and the GI50 (PC-3 prostate) was 2.93 µM. It also gave a TGI (PC-3 prostate) of over 100 µM, a GI50 (NCI/ADR-RES ovarian) of 3.4 µM and a TGI (NCI/ADR-RES ovarian) of over 100 µM. For the same compound, the GI50 (M14 melanoma) was 1.7 µM, the TGI (M14 melanoma) was 3.57 µM and the GI50 (MALME-3M melanoma) was 2.76 µM. For the same compound, the TGI (MALME-3M melanoma) was 9.19 µM, the GI50 (UO-31 renal) was 1.62 µM and the TGI (UO-31 renal) was 3.49 µM. The GI50 (A498 renal) was 17.7 µM, the TGI (A498 renal) was over 100 µM and the GI50 (RPMI-8226 leukemia) was 2.91 µM. It also gave a TGI (RPMI-8226 leukemia) of 14.3 µM, a GI50 (MCF7 breast) of 1.12 µM and a TGI (MCF7 breast) of 18.8 µM. For the same compound, the GI50 (DU-145 prostate) was 2.91 µM, the TGI (DU-145 prostate) was 12.1 µM and the GI50 (COLO 205 colon) was 2.36 µM. The TGI (COLO 205 colon) was 4.94 µM, the GI50 (K-562 leukemia) was 2.88 µM and the TGI (K-562 leukemia) was over 100 µM. For the same compound, the GI50 (SF-268 CNS) was 2.36 µM, the TGI (SF-268 CNS) was 6.91 µM and the GI50 (IGROV1 ovarian) was 1.67 µM. The TGI (IGROV1 ovarian) was 4.23 µM, the GI50 (HCT-15 colon) was 2.27 µM and the TGI (HCT-15 colon) was 5.68 µM. It also gave a GI50 (786-0 renal) of 2.16 µM, a TGI (786-0 renal) of 4.65 µM and a GI50 (CAKI-1 renal) of 1.89 µM. It also gave a TGI (CAKI-1 renal) of 4.49 µM, a GI50 (KM12 colon) of 1.64 µM and a TGI (KM12 colon) of 3.1 µM. For the same compound, the GI50 (A549 NSCLC) was 16.4 µM, the TGI (A549 NSCLC) was over 100 µM and the GI50 (EKVX NSCLC) was 3.04 µM. For the same compound, the TGI (EKVX NSCLC) was over 100 µM, the GI50 (OVCAR-8 ovarian) was 2.63 µM and the TGI (OVCAR-8 ovarian) was 9.44 µM. For the same compound, the GI50 (NCI-H460 lung) was 1.67 µM, the TGI (NCI-H460 lung) was 3.28 µM and the GI50 (SN12C renal) was 2.44 µM. For the same compound, the TGI (SN12C renal) was 7.53 µM, the GI50 (OVCAR-5 ovarian) was 2.81 µM and the TGI (OVCAR-5 ovarian) was 7.83 µM. It also gave a GI50 (LOX IMVI melanoma) of 1.48 µM, a TGI (LOX IMVI melanoma) of 3.15 µM and a GI50 (NCI-H23 lung) of 2.32 µM. It also gave a TGI (NCI-H23 lung) of 6.13 µM, a GI50 (MOLT-4 leukemia) of 3.17 µM and a TGI (MOLT-4 leukemia) of over 100 µM. It also gave a GI50 (SK-OV-3 ovarian) of 3.21 µM, a TGI (SK-OV-3 ovarian) of 9.93 µM and a GI50 (T-47D breast) of 2.29 µM. It also gave a TGI (T-47D breast) of 39.5 µM, a GI50 (HL-60(TB) leukemia) of 3.14 µM and a TGI (HL-60(TB) leukemia) of over 100 µM. For the same compound, the GI50 (OVCAR-3 ovarian) was 2.18 µM and the TGI (OVCAR-3 ovarian) was 4.4 µM.
